The experiment can be described thus: Revised Biochemical Assay: Compounds of the invention may be tested for in vitro activity in the following assay: A histone H4 derived peptide is used as substrate (amino acid sequence: […]N H2). Full-length PRMT5 enzyme (NCBI Reference sequence NP_006100.2) was co-expressed with His6-MEP50 in insect cells and purified via Nickel immobilized metal affinity and gel filtration chromatography (the enzyme).The 6 μL reactions are run in Greiner brand black 384-well low volume assay plates. All reactions contained assay buffer (phosphate buffered saline, 0.01% (v/v) Tween-20, 0.01% (w/v) albumin from chicken egg white, 1 mM Dithiothreitol, 1 μM peptide substrate, 1 μM S-Adenosyl methionine, and 15 ng/reaction enzyme, with the enzyme being omitted from negative control reactions. Compounds were added in a volume of 100 nL from dilution series prepared in DMSO, positive and negative control reactions receiving the same volume DMSO without compound. The plates were sealed with adhesive seals and incubated for 4 hours at 37 degree Celsius. Reaction progress was measured using the Transcreener EPIGEN methyltransferase assay (BellBrook Labs, Madison, Wis.) as recommended by the manufacturer. To each reaction 2 μL detection mix were added, containing coupling enzymes, fluorescence polarisation tracer, and AMP antibody. Plates were incubated for 90 minutes before being read on a PerkinElmer EnVision plate reader in fluorescence polarisation mode. (In general: Size exclusion chromatography separates by hydrodynamic size, large species first.)

`COC(=O)N1[C@@H]2CC[C@H]1CC(Oc1cc(C(=O)NC[C@@H](O)[C@@H]3Cc4ccccc4CN3)ccn1)C2` (stereo partly drawn): half-maximal inhibition (IC50) was put at 38 nM.
As to `O=C(NC[C@@H](O)[C@@H]1Cc2ccccc2CN1)c1ccc2[nH]ncc2c1`, the midpoint of inhibition, the IC50, lay at 2740 nM.
In the case of `Cc1ccc(C(=O)NC[C@@H](O)[C@@H]2Cc3ccccc3CN2)cn1`, the half-maximal inhibitory concentration (IC50) (usually the concentration that gives 50% inhibition) was 4660 nM.
